Laboratory results taken from patent publication US4366160A, “Imidazole derivatives” (Hoffmann-La Roche Inc., priority 1980, dated 1982).

Key:
Format in all cases: in vivo
[1] = test system: sympathetic nervous system; test: Central sympathetic-inhibitory activity (cats in urethane narcosis); conditions: anaesthetized cat, i.v.; positive if sympathetic activity inhibited >30% for >30 minutes in blood pressure-lowering dosages
Excerpt: The central sympathetic-inhibitory activity can be determined according to the following method:
(§1) The action of the test compounds on the activity in the sympathetic nervous system is investigated on cats in urethane narcosis. The preganglionic sympathetic activity is derived by means of biopolar platinum electrodes from the splanchnic nerve and the postganglionic sympathetic activity is derived from a nerve branch to the kidney according to the method of G. Hausler [Naunyn-Schmiedeberg's Arch. Pharmacol. 286, 97-111 (1974)]. Moreover, there is measured the arterial blood pressure from the femoral artery as well as the heart rate. The test substance is injected intravenously. When a test substance in blood pressure-lowering dosages inhibits the sympathetic activity during more than 30 minutes by more than 30%, then it is qualified as having "central sympathetic-inhibitory activity".

Anaesthetized cat = test: Blood pressure and heart rate in the anaesthetized cat (i.v.); conditions: maximum variation from control
Experimental: as §1
(§2) In the Table which follows, the results obtained with compounds A to H are compiled. The maximum percentage variations from the control values are given.

[2] = test system: Spontaneously hypertensive rat; test: Cardiovascular activities: systolic blood pressure and heart rate in conscious spontaneously hypertensive rats (p.o.); conditions: maximum variation from control
Experimental: The cardiovascular activities can be determined according to the following method:
The systolic blood pressure and the heart rate are measured several times on conscious, spontaneously hypertensive female rats before the administration of the subtance. Per dosage there are used 5 experimental animals with a body weight of about 300 g. The administration of substance is carried out by means of a stomach probe. Both parameters are measured 1, 3, 6 and 16 hours after the administration and the percentage variation from the control values is calculated. The systolic blood pressure is measured indirectly at the tail artery of the rate according to the method of Gerold et al. (Helv. Physiol. Acta 24, 58-69 (1966); Arzneimittelforschung 18, 1285-1287 (1968).
as §2

writhing (mouse) = test: Writhing test (mouse), 60 minutes after peroral administration; conditions: po, 1 h, orally, 60 minutes after administration, 50% of animals show no more than one writhing
Experimental: In carrying out the experiment there are used in each case 8 male mice (20-22 g) per dosage. 60 minutes after the oral administration of the test substance 10 ml/kg of the test solution is administered to the animals by intraperitoneal injection. After a latent period of 5 minutes, the number of animals in which during 5 minutes no more than one characteristic writhing symptom, that is, convulsive stretching movement of the body, occurs is registered. The ED 50 indicates the oral dosage in mg/kg at which 50% of the animals show no more than one writhing.
60 minutes after peroral administration

[3] = test system: electrical stimulation of the dental pulp; test: Activity against an electrical stimulation of the dental pulp in apes, peroral; conditions: after peroral administration
opiate receptor = test: Cancellation of the analgesia by the opiate receptor blocker naloxone
[4] = test system: morphine-antagonistic activity; test: Morphine-antagonistic activity
α-adrenergic receptor = test: Cancellation of the analgesia by the α-adrenergic receptor blocker yohimbine

SMILES	Central sympathetic-inhibitory activity [1]	Blood pressure, Δ% (Anaesthetized cat; 1.0 mg/kg (i.v.)) [%]	Heart rate, Δ% (Anaesthetized cat; 1.0 mg/kg (i.v.)) [%]	Blood pressure, Δ% (Anaesthetized cat; 3.0 mg/kg (i.v.)) [%]	Heart rate, Δ% (Anaesthetized cat; 3.0 mg/kg (i.v.)) [%]	Heart rate, Δ% (Anaesthetized cat; 10.0 mg/kg (i.v.)) [%]	Blood pressure, Δ% ([2]; 1.0 mg/kg (p.o.))	Heart rate, Δ% ([2]; 1.0 mg/kg (p.o.))	Blood pressure, Δ% ([2]; 3.0 mg/kg (p.o.))	Heart rate, Δ% ([2]; 3.0 mg/kg (p.o.))	ED50 (writhing (mouse)) [mg/kg]	Blood pressure, Δ% ([2]; 10.0 mg/kg (p.o.))	Heart rate, Δ% ([2]; 10.0 mg/kg (p.o.))	Blood pressure, Δ% (Anaesthetized cat; 10.0 mg/kg (i.v.)) [%]	further results
[O-][n+]1ccccc1CON1CCNC1=Nc1cccc(Cl)c1Cl [B, 2-([{2-[(2,3-Dichlorophenyl)imino]-1-imidazolidinyl}oxy]methyl)pyridine 1-oxide]	none	-5	0	-25	-6	-6	-4.1%	-11.8%	-7.8%	-8.4%	1.3	–	–	–	Blood pressure, Δ% (Anaesthetized cat; 10.0 mg/kg (i.v.), (15')): -50%
CN(C1=NCCN1OCc1cccc[n+]1[O-])c1c(Cl)cccc1Cl [C, 2-[{[2-(2,6-Dichloro-N-methylanilino)-2-imidazolin-1-yl]oxy}methyl]pyridine 1-oxide]	none	–	-6	–	–	–	+0.3%	+6.3%	+1.2%	-5.8%	26	+2.2%	+3.2%	–	Blood pressure, Δ% (Anaesthetized cat; 1.0 mg/kg (i.v.), (5')): -14%; Blood pressure, Δ% (Anaesthetized cat; 3.0 mg/kg (i.v.), (10')): -21%; Heart rate, Δ% (Anaesthetized cat; 3.0 mg/kg (i.v.), (10')): -22%; Blood pressure, Δ% (Anaesthetized cat; 10.0 mg/kg (i.v.), (10')): -21%; Heart rate, Δ% (Anaesthetized cat; 10.0 mg/kg (i.v.), (10')): -22%
[O-][n+]1ccccc1CON1CCNC1=Nc1c(Cl)cccc1Cl [Compound A, 2-([{2-[(2,6-Dichlorophenyl)imino]-1-imidazolidinyl}oxy]methyl)pyridine 1-oxide]	none	-5	-5	-10	-5	-29	-0.2%	+15.2%	+0.3%	+3.3%	3.5	-3.1%	-9.6%	-10	activity against an electrical stimulation of the dental pulp, relative to morphine [3]: three-times stronger activity than morphine; cancellation of analgesia with naloxone (opiate receptor): not with the opiate receptor blocker naloxone; addictive activity ([4]; concluded from lack of morphine-antagonistic activity): absence of an addictive activity; morphine-antagonistic activity ([4]; in vivo): no morphine-antagonistic activity could be found; cancellation of analgesia with yohimbine (α-adrenergic receptor): can be cancelled out; Blood pressure, Δ% ([2]; 30.0 mg/kg (p.o.)): -10.5%; Heart rate, Δ% ([2]; 30.0 mg/kg (p.o.)): -3.6%; Blood pressure, Δ% ([2]; 100.0 mg/kg (p.o.)): 0%; Heart rate, Δ% ([2]; 100.0 mg/kg (p.o.)): 0%
Cc1cc[n+]([O-])c(CON2CCNC2=Nc2c(Cl)cccc2Cl)c1 [D, 2-([{2-[(2,6-Dichlorophenyl)imino]-1-imidazolidinyl}oxy]methyl)-4-methylpyridin 1-oxide]	none	–	–	-22	-27	–	-7.0%	-10.0%	-10.2%	-7.5%	16	-12.6%	-13.3%	–	Blood pressure, Δ% (Anaesthetized cat; 1.0 mg/kg (i.v.), (3')): -22%
CC(ON1CCNC1=Nc1c(Cl)cccc1Cl)c1cc[n+]([O-])cc1 (centres unmarked) [E, 4-(1-[{2-[(2,6-Dichlorophenyl)imino]-1-imidazolidinyl}oxy]ethyl)pyridine1-oxide]	none	0	0	-4	0	-14	–	–	+10.2%	+4.0%	7.3	-13.9%	-13.2%	-12	Blood pressure, Δ% ([2]; 30.0 mg/kg (p.o.)): +2.4%; Heart rate, Δ% ([2]; 30.0 mg/kg (p.o.)): -9.9%
Cc1ccc(CON2CCNC2=Nc2c(Cl)cccc2Cl)[n+]([O-])c1 [F, 2-([{2-[(2,6-Dichlorophenyl)imino]-1-imidazolidinyl}oxy]methyl)-5-methylpyridin 1-oxide]	none	0	0	0	0	-10	-9.6%	-4.9%	-10.4%	-5.5%	27	–	–	0	–
Cc1cccc(CON2CCNC2=Nc2c(Cl)cccc2Cl)[n+]1[O-] [G, 2-([{2-[(2,6-Dichlorophenyl)imino]-1-imidazolidinyl}oxy]methyl)-6-methylpyridin 1-oxide]	none	-4	0	-4	-4	-13	–	–	–	–	16	-12.0%	-22.6%	-15	–
[O-][n+]1ccc(O)cc1CON1CCNC1=Nc1c(Cl)cccc1Cl [H, 2-([{2-[(2,6-Dichlorophenyl)imino]-1-imidazolidinyl}oxy]methyl)-4-pyridinol 1-oxide]	none	-12	0	–	-2	–	–	–	–	–	8.7	–	–	–	Blood pressure, Δ% (Anaesthetized cat; 3.0 mg/kg (i.v.), (10')): -27%; Blood pressure, Δ% (Anaesthetized cat; 10.0 mg/kg (i.v.), (10')): -62%; Heart rate, Δ% (Anaesthetized cat; 10.0 mg/kg (i.v.), (10')): -18%
